Source: US8653031B2, “Process for the preparation of compositions of AT1 receptor antagonist and Angiotensin—(1-7)” (Universidade Federal de Minas Gerais, priority 2006, dated 2014)

Key:
[1] = system: spontaneously hypertensive rats (SHR); test: Antihypertensive test: blood pressure recorded by telemetry in SHR after oral administration; assay type: in vivo, rat
Protocol: Male, spontaneously hypertensive rats (SHR) were used, with initial age of 14-16 weeks, from the Centro de Bioterismo (CEBIO, Federal University of Minas Gerais). The animals were kept with free access to food and water and were submitted to a light-dark cycle (12 hours each).
After anesthesia with tribromoethanol (0.25 g/Kg body weight), trichotomy of the abdominal region and local asepsis was made. After adjustment of the surgical field, a median incision of 4 to 6 cm was performed in the abdomen with the implantation of the transducer catheter in the abdominal aorta. After surgery, a veterinary pentabiotic was administered (0.1 ml) via intramuscular route (i.m.). […]
Records of the cardiovascular parameters, average blood pressure and heart rate were obtained by a telemetry data acquisition system (Data Science International). This monitoring system consists of 4 basic elements: (A) a sensor catheter (model—TA11PA-C40) which was inserted into the animal's abdominal aorta for collection, processing and transmission of pulsatile blood pressure; (B) a receiving signal plate (RPC-1); (C) a muliplexor that received the signal from several receiving plates and sent them to (D) the data acquisition system itself, which collected, stored and analyzed the data by means of a specific software, ART-Gold v. […]
The acute cardiovascular effects of administering the LA compound were determined. […]

ACE = ACE (Homo sapiens, UniProt P12821); settings: read-out: IC50 for ACE inhibition; cited from earlier work
Chain of ACE (P12821 30-1306, species assumed): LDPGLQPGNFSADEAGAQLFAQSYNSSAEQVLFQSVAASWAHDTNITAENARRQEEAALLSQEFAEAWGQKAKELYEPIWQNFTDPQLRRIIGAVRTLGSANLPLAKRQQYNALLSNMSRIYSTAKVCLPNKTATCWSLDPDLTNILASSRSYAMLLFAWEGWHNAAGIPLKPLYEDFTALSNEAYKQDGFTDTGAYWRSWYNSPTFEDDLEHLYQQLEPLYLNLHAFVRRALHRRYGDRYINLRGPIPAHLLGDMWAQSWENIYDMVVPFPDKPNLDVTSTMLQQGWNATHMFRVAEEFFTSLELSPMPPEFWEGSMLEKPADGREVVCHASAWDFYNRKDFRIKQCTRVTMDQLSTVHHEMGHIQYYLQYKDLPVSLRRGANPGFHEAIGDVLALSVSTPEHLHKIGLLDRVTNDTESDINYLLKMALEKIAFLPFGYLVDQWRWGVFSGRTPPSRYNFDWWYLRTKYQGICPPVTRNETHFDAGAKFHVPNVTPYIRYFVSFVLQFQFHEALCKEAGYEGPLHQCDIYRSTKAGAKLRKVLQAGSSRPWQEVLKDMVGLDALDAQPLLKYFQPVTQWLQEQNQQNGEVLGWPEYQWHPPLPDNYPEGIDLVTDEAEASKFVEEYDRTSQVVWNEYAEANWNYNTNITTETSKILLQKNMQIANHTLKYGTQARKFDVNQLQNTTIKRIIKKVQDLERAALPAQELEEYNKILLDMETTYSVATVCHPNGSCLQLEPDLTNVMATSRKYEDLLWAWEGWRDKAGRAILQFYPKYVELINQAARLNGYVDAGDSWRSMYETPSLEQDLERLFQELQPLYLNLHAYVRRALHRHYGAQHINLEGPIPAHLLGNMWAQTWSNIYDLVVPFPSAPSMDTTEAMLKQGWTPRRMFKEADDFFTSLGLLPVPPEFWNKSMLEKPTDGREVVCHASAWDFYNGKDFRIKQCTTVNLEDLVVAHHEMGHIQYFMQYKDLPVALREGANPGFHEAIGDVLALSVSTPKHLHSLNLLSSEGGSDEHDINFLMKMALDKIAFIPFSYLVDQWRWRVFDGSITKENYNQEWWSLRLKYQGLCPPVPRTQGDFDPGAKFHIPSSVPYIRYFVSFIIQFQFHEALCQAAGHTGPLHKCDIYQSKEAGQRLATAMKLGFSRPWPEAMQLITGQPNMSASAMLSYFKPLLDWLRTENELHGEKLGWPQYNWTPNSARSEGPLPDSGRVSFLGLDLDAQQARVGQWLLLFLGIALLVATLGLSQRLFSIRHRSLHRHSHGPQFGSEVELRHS

Row | Molecule | reduction in the average blood pressure ([1]; n=2, single oral dose equivalent to 1 mg Kg/day of losartan, after 5 hours (maximum for test compound)) | duration of the blood pressure lowering effect ([1]; single oral dose equivalent to 1 mg Kg/day of losartan) | IC50 (ACE)
1 | CCCCc1nc(Cl)c(CO)n1Cc1ccc(-c2ccccc2-c2nn[nH]n2)cc1 [losartan] | −10 mmHg | 12 h | –
2 | DRVYIHP [Ang-(1-7), Asp-Arg-Val-Tyr-Ile-His-Pro, heptapeptide of the renin-angiotensin system] | – | – | ~1000 nM
